doi:10.1101/2025.09.05.673737v1 (biorxiv, 2025)

Target: T1, ArpA (Streptomyces griseus, UniProt Q9ZN78)
T1 sequence (Q9ZN78 1-276): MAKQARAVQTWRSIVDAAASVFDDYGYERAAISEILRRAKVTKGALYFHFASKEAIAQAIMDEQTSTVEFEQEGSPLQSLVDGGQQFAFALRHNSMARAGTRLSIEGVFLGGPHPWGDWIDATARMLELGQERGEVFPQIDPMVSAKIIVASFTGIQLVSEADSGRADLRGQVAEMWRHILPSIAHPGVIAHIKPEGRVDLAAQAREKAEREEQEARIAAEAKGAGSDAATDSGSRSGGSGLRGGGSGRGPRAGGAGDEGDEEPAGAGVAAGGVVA
Experiment: E. coli pTOTAL biosensor, GFP derepression dose-response
Assay type: cell-based

EC50 [µM] | SMILES
0.39 | CC(C)CCCCC(=O)C1C(=O)OC[C@H]1CO (some centres unmarked) [A-factor]
18.1 | CC(C)CCCC[C@@H](O)[C@@H]1C(=O)OC[C@H]1CO [SCB1]
